Consider 4 compounds from ChEMBL document CHEMBL1201862, “PubChem BioAssay data set” (2004).

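These data come from cells grown in 96-well plates and exposed to compound for 48 hours at five concentrations. The concentration for 50% growth inhibition is given as GI50.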 The source made the active and inactive calls. Cut-off read from the data, not from the text of the source: active = GI50 up to about 1.1 µM and inactive = higher.

Among the test systems are NCI-H23; M14; HT-29; SN12C; HCT-15; NCI-H226; SNB-19; EKVX; HCC 2998; OVCAR-5; CCRF-CEM; NCI-H460; SK-OV-3; SF-268; HL-60; CAKI-1; 786-0; HOP-92; SK-MEL-5; SR.
Holding throughout (assay): growth of human tumour cells (NCI), 48 h

`CN(C)c1ccc(/C=C(\NC(=O)c2ccccc2)C(=O)NC(CC(=O)O)C(=O)O)cc1` (stereo not given): the GI50 with NCI-H23 is > 100 µM (inactive); with M14, > 100 µM (inactive); with HT-29, > 100 µM (inactive); in the experiment on SN12C, > 100 µM (inactive); in the experiment on HCT-15, greater than 100 µM; in the experiment with NCI-H226, > 100 µM (inactive). Besides, the GI50 with SNB-19 is > 100 µM (inactive); in the experiment with EKVX, > 100 µM (inactive); with HCC 2998, > 100 µM (inactive); in the experiment with OVCAR-5, > 100 µM (inactive); in the experiment with CCRF-CEM, > 100 µM (inactive); with NCI-H460, 65.9 µM (inactive). Besides, the GI50 with SK-OV-3 is > 100 µM (inactive); with SF-268, 61.4 µM (inactive); with HL-60 it was > 100 µM (inactive); in the experiment on CAKI-1, > 100 µM (inactive); in the experiment on 786-0, 41.9 µM (inactive); in the experiment on HOP-92 it was > 100 µM (inactive). Moreover, the GI50 in the experiment on SK-MEL-5 was 94.6 µM (inactive); in the experiment with SR, 75 µM (inactive).

On to `CC(C)c1ccc(O)c(=O)c(O)c1.CC(C)c1ccc(O)c(=O)cc1.CC(C)c1cccc(=O)c(O)c1.CC(C)c1ccccc(=O)c1O`, for which the GI50 with NCI-H23 was 0.851 µM (active); in the experiment with M14 it was 1.8 µM (inactive); with HT-29, 0.509 µM (active); in the experiment on SN12C, 0.998 µM (active); in the experiment with HCT-15, 0.198 µM; with NCI-H226 it was 1.76 µM (inactive). Moreover, the GI50 with SNB-19 was 3.4 µM (inactive); with EKVX, 6.15 µM (inactive); with HCC 2998, 0.304 µM (active); in the experiment on OVCAR-5, 3.11 µM (inactive); with CCRF-CEM, 0.21 µM (active); in the experiment with NCI-H460, 0.191 µM (active). Further, the GI50 with SK-OV-3 is 4.37 µM (inactive); in the experiment on SF-268 it was 0.632 µM (active); with HL-60 it was 0.281 µM (active); in the experiment on CAKI-1 it was 1.36 µM (inactive); with 786-0 it was 0.719 µM (active); in the experiment on HOP-92 it was 5.94 µM (inactive). Moreover, the GI50 with SK-MEL-5 is 1.22 µM (inactive); in the experiment with SR it was 0.262 µM (active).

For the compound `O=C1CCCC1C(=O)Nc1ccc2ccccc2c1` (stereo not given), the GI50 in the experiment with NCI-H23 is > 100 µM (inactive); in the experiment on M14, > 100 µM (inactive); in the experiment with HT-29, 55.7 µM (inactive); in the experiment with SN12C it was > 100 µM (inactive); with HCT-15, greater than 100 µM; in the experiment on NCI-H226, > 100 µM (inactive). Further, the GI50 in the experiment on SNB-19 was > 100 µM (inactive); in the experiment with EKVX, 32.1 µM (inactive); with HCC 2998, > 100 µM (inactive); with OVCAR-5, > 100 µM (inactive); in the experiment with CCRF-CEM, 57 µM (inactive); in the experiment on NCI-H460, > 100 µM (inactive). The GI50 in the experiment with SK-OV-3 was > 100 µM (inactive); in the experiment with SF-268, > 100 µM (inactive); with HL-60, 35.6 µM (inactive); with CAKI-1 it was > 100 µM (inactive); in the experiment on 786-0, > 100 µM (inactive); in the experiment on HOP-92, > 100 µM (inactive). For the same compound, the GI50 with SK-MEL-5 and with SR was > 100 µM (inactive) in each case.

On to `O=C(/C=C/c1ccco1)c1cccc(C(=O)/C=C/c2ccco2)n1`, for which the GI50 in the experiment on NCI-H23 was 11.7 µM (inactive); in the experiment with M14 it was 27.2 µM (inactive); in the experiment with HT-29, 5.07 µM (inactive); with SN12C it was 12.6 µM (inactive); in the experiment with HCT-15, 4.92 µM; with NCI-H226 it was > 100 µM (inactive). For the same compound, the GI50 in the experiment with SNB-19 was 8.41 µM (inactive); in the experiment with EKVX, 57.3 µM (inactive); in the experiment with HCC 2998, > 75.9 µM (inactive); with OVCAR-5, 26.1 µM (inactive); with CCRF-CEM, 0.71 µM (active); in the experiment with NCI-H460, 42.4 µM (inactive). Also, the GI50 was 47.8 µM (inactive) in the experiment with SK-OV-3; 5.24 µM (inactive) in the experiment with SF-268; 0.0409 µM (active) in the experiment on HL-60; 25 µM (inactive) with CAKI-1; 3.4 µM (inactive) in the experiment with 786-0; 32.9 µM (inactive) in the experiment on HOP-92. In addition, the values for the GI50 in the experiment with SK-MEL-5 and in the experiment on SR were 48.6 µM (inactive) and 1.37 µM (inactive), respectively.
